Data set [1] relates to cofilin phosphorylation in resting memory CD4 T cells. Kind of data set: Intracellular p-cofilin staining and flow cytometry after HIV-1(AD8) or gp120(BAL) stimulation. Type of data set: cell-based, human. The text has this:
In addition to CXCR4, CCR5 is used by R5-tropic viruses that predominate early in the infection; R5 HIV infects and depletes gut memory CD4 T cells, leading to chronic immune activation (20, 21). Whether HIV-mediated CCR5 signaling can also lead to cofilin activation in memory T cells was investigated. In contrast to X4 viruses, which infect both memory and naïve CD4 T cells, R5 viruses infect a subpopulation of memory CD4 T cells (FIG. 1A). CCR5 is present on only around 30% of resting memory CD4 T cells (FIG. 1B). Given this low percentage, a flow cytometry-based intracellular phospho-cofilin staining method was used to quantify cofilin in individual cells. […]
A3R5.7 cell is acquired from the NIH AIDS Reagent Program. […] Viral titer (TCID50) was determined on the Rev-dependent GFP indicator cell (61), Rev-A3R5-GFP (Virongy, Manassas, Va.). […] T cells were stained with anti-CD45RO-Pacific Blue monoclonal antibody (BD Pharmingen) and analyzed by Flow Cytometry for CD45RO and GFP expression. […]
One million cells were fixed, permeabilized with methanol, washed, and then stained with an anti-human p-cofilin antibody using a commercial intracellular staining kit (Virongy, Manassas, Va.) for 60 min at room temperature. […] Cells were washed twice, and then analyzed on a FACSCalibur (BD Biosciences, San Jose, Calif.).
(In flow cytometry, cells or beads pass a laser one at a time.)

Data set [2] deals with A3R5.7 T cells or blood resting CD4 T cells. The experiment in a line: Chemotaxis trans-well assay in response to SDF-1. In kind it is cell-based, human. The protocol: (§1) Cells were stained with PE-labeled Rat anti-human CCR5 antibody (Biolegend, San Diego, Calif.) or with a mouse anti-human α4β7 integrin antibody (Act-1) (obtained from NIH AIDS Reagent Program) followed by secondary antibody staining with Alexa Fluor 647-labelled goat anti-mouse antibodies (Invitrogen, Carlsbad, Calif.). Cells were stained on ice in PBS+0.1% BSA for 30 minutes, washed with cold PBS-0.5% BSA, and then analyzed on a FACSCalibur (BD Biosciences, San Jose, Calif.).
A half million cells were resuspended into 100 μl RPMI-1640 medium and then added to the upper chamber of a 24-well trans-well plate (Corning, Corning, N.Y.). The lower chamber was filled with 600 μl of medium premixed with SDF-1 (40 ng/ml). The plate was incubated at 37° C. for 2 hours, and then the upper chamber was removed and cells in the lower chamber were counted. Where indicated, different concentrations of R10015 (29) or DMSO were added to cell culture, incubated for 1 hour at 37° C. before adding cells to the upper chamber. Cells were also treated with the anti-human α4β7 integrin antibody (Act-1) or the control mouse IgG1 antibody for 15 minutes before adding cells to the upper chamber. Act-1 (1 μg/ml) was also added to the lower chamber with SDF-1 (40 ng/ml).

For data set [3], the system named is cofilin phosphorylation in A3R5.7 T cells or blood resting CD4 T cells. The experiment in a line: Western blot for p-cofilin and cofilin after R10015 treatment. In kind it is cell-based, human. From the text:
Cofilin hyperactivation may be associated with a migratory impairment of CCR6+ and CXCR3+ helper T cells (Th), which are prevented from trafficking from the blood stream to peripheral organs even in aviremic HIV patients on long-term ART (5). T cell migration and homing is controlled by chemotactic signaling which activates cycles of cofilin phosphorylation and dephosphorylation to drive actin dynamics for cell motility. Phosphorylation of cofilin is regulated by LIM-domain kinase (LIMK), which inactivates cofilin through serine 3 phosphorylation (28). To quantify the effect of cofilin hyperactivation on T cell migration, a recently discovered LIMK inhibitor, R10015 (29) was used, to mimic cofilin activation in HIV infection. A human CD4 T cell line, A3R5.7, or blood resting CD4 T cells were treated with different dosages of R10015 during chemotaxis (FIG. 3). […] At around 15 to 20 μM of R10015, cofilin phosphorylation was reduced to around 50%, approximately the level seen in HIV patients (FIGS. 3A and 3B).
One million cells were lysed in NuPAGE LDS Sample Buffer (Invitrogen, Carlsbad, Calif.) followed by sonication. Samples were heated at 70° C. for 10 minutes, separated by SDS-PAGE, and then transferred onto nitrocellulose membranes (Invitrogen, Carlsbad, Calif.). The membranes were washed in TBST for 3 minutes and then blocked for 30 minutes at room temperature with 5% milk. […]
For orientation: A western blot detects proteins with antibodies after separation by electrophoresis.

Data set [4] relates to LIMK. Particulars: previously identified (30); cited from earlier work.
For data set [5] the following is noted: prevents therapeutic use; cited from earlier work.
Data set [6] deals with cofilin phosphorylation in resting memory and IL-7-cultured naïve CD4 T cells (α4β7 integrin). The experiment in a line: Intracellular p-cofilin staining and flow cytometry after Act-1 stimulation. Conditions: memory T cells treated with PTX 2 hours, then Act-1 1 μg/ml; 30 min. Type of data set: cell-based, human. On the procedure:
In the human peripheral blood, high levels of α4β7 were detected on a subpopulation of resting memory CD4 T cells (36).
One million cells were fixed, permeabilized with methanol, washed, and then stained with an anti-human p-cofilin antibody using a commercial intracellular staining kit (Virongy, Manassas, Va.) for 60 min at room temperature. Cells were washed twice and stained with Alexa Fluor 488-labeled chicken anti-rabbit antibodies (Invitrogen, Carlsbad, Calif.). Cells were washed twice, and then analyzed on a FACSCalibur (BD Biosciences, San Jose, Calif.).

Data set [7] has as its system α4β7 on naïve CD4 T cells. Kind of data set: Surface staining of α4β7 and flow cytometry. Conditions: naïve T cells cultured in IL-7 (5 ng/ml) for 3 days; FIG. 5. Type of data set: cell-based, human.
Text: All protocols involving human subjects were reviewed and approved by the George Mason University institutional review board. Peripheral blood mononuclear cells (PBMC) were purified from peripheral blood of HIV-negative donors by centrifugation in Lymphocyte Separation Medium (Corning, Corning, N.Y.), and resting CD4 T cells were further purified by two rounds of negative selection as previously described (13, 54). Briefly, for the first-round depletion, monoclonal antibodies against human CD14, CD56 and HLA-DR, DP, and DQ (BD Biosciences, San Jose, Calif.) were used. For the second-round depletion, monoclonal antibodies against human CD8, CD11b, and CD19 (BD Biosciences, San Jose, Calif.) were used. Antibody-bound cells were depleted using Dynabeads Pan Mouse IgG (Invitrogen, Carlsbad, Calif.). […]
as §1

On to `Cc1nnc(C(C)C)n1C1C[C@H]2CC[C@@H](C1)N2CC[C@H](NC(=O)C1CCC(F)(F)CC1)c1ccccc1` (stereo in doubt) [maravoric], for which the “cofilin activation by gp120(BAL) after pretreatment with CCR5 blocker” value in data set [1] (maravoric 1 μM for 1 hour, then gp120(BAL) 100 nM, FIG. 1D) is “largely abrogated”.

For `COC(=O)c1ccc2nc(C3CCN(c4ncnc5[nH]cc(Cl)c45)CC3)[nH]c2c1` [R10015], the “decrease in migrating T cells” value in data set [2] (15 μM or 20 μM R10015 (50% reduction in cofilin phosphorylation), A3R5.7 and blood T cells, SDF-1 40 ng/ml) is listed as 20-40%. The “percentage of migrating α4β7^high T cells” value in data set [2] (R10015 alone, control 8.90%, FIG. 4F) was 4.52%. The “percentage of the CCR7^+ T cell subpopulation among migrating cells” value in data set [2] (R10015 and Act-1, FIG. 8) was “not altered”. In addition, the “impairment of T cell chemotaxis” value in data set [2] (different dosages of R10015, SDF-1 40 ng/ml, FIGS. 3C and 3D) is listed as “dosage-dependent impairment of T cell chemotaxis”. Further, in data set [3] (around 15 to 20 μM R10015, one hour, A3R5.7 or blood resting CD4 T cells), the “cofilin phosphorylation reduced to” value is “around 50%”. Besides, the dephosphorylation of cofilin entry in data set [3] (different dosages of R10015, one hour, FIGS. 3A and 3B) is “dosage-dependent dephosphorylation of cofilin”.

On to `C=C1[C@@H](O)[C@@H]2O[C@]3(CC[C@H](/C=C/[C@@H](C)[C@@H]4CC(C)=C[C@@]5(O[C@H](C[C@@](C)(O)C(=O)O)CC[C@H]5O)O4)O3)CC[C@H]2O[C@@H]1[C@@H](O)C[C@H](C)[C@H]1O[C@@]2(CCCCO2)CC[C@H]1C` [okadaic acid], for which, in data set [4], the “LIMK activation, cofilin phosphorylation and actin polymerization” value was “activate LIMK and enhance cofilin phosphorylation and actin polymerization”. For the same molecule, the toxicity entry in data set [5] is “high toxicity”.

For the molecule pertussis toxin, the “Act-1-mediated cofilin activation after PTX” value in data set [6] was “late inhibition of cofilin activation”. Also, the “cofilin activation (dephosphorylation) following exposure to R5-HIV” value in data set [1] (resting memory CD4 T cells, pertussis toxin 100 ng/ml for 1 hour, then HIV(AD8), FIG. 1C) is given as “largely abrogated late cofilin activation”.

B1: IL-7: cytokine used to culture naïve T cells for α4β7 surface receptor upregulation (protein, UniProt P13232 26-177, looked up)
Interleukin-7: DCDIEGKDGKQYESVLMVSIDQLLDSMKEIGSNCLNNEFNFFKRHICDANKEGMFLFRAARKLRQFLKMNSTGDFDLHLLKVSEGTTILLNCTGQVKGRKPAALGEAQPTKSLEENKSLKEQKKLNDLCFLKRLLQEIKTCWNKILMGTKEH
Regarding B1, the α4β7 surface expression result in data set [7] is listed as “greatly upregulate α4β7 on the cell surface”.
